Measured values as given in patent US20230303556A1, “PIPERAZINE SUBSTITUTED INDAZOLE COMPOUNDS AS INHIBITORS OF PARG” (IDEAYA BIOSCIENCES, INC., priority 2022, published 2023).
In brackets after ≈: the same amount, converted by molar mass. Where two headings read alike, the source gives them in different places.

What was measured:
hPARG = hPARG (Homo sapiens (Human), UniProt Q86W56); test: Inhibition of PARG enzymatic assay (TR-FRET); format: biochemical; details: geometric mean; 1 hr compound/enzyme pre-incubation
hPARG, sequence (Q86W56 whole entry): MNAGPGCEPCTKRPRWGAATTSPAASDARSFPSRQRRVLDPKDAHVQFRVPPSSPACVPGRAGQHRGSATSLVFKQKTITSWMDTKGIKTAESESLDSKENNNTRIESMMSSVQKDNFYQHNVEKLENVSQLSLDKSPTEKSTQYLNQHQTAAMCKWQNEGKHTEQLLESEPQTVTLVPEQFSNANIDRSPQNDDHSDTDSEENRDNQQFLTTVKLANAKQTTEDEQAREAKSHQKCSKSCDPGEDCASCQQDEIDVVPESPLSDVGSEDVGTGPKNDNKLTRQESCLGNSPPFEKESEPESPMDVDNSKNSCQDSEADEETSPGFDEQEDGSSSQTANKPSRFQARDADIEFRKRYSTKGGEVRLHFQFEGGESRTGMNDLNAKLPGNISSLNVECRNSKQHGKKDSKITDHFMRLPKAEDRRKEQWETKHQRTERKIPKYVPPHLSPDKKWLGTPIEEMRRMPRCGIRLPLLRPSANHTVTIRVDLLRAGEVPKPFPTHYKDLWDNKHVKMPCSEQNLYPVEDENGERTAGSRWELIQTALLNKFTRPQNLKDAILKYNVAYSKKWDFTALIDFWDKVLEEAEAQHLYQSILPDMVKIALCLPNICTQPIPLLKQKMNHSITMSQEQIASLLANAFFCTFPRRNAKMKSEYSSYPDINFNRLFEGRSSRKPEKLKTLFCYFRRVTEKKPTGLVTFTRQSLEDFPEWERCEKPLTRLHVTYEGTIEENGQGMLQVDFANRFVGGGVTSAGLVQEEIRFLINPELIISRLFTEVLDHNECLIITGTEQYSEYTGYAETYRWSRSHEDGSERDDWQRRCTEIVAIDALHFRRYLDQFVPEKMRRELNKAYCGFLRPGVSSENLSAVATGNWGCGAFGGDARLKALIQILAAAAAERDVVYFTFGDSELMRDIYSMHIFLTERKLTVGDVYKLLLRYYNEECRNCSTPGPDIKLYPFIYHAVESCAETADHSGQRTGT
Description: PARG enzyme was incubated with compound or vehicle (DMSO) and the biotinylated-PARylated PARP-1 substrate in a microtiter plate. After adding detection antibody and streptavidin-europium, and then incubating, the plate was read for fluorescence intensity. The low control (DMSO) with low fluorescence intensity represents no inhibition of enzymatic activity, while the high control (no enzyme) with high fluorescence intensity represents full inhibition of enzymatic activity.
• 0% inhibition: DMSO • 100% inhibition: No enzyme Enzyme reaction and Detection: • 1. Transfer 200 nL of 100× compound or DMSO to the appropriate wells of a 384 well white polystyrene microtitre plate (Corning Catalog #3574). • 2. Transfer 10 uL of 2× final concentration of enzyme in assay buffer or assay buffer alone to the appropriate wells. • 3. Centrifuge the plate at 1000 rpm for 30 seconds. • 4. Incubate the plate at room temperature for 1 hour. • 5. Transfer 10 uL of 2× substrate in assay buffer to all test wells. • 6. Incubate the plate at room temperature for 10 minutes • 7. Transfer 10 uL of 3× mixture of 42 nM detection antibody and 2.25 nM streptavidin-europium in 50 mM Tris-HCL pH 7.4 to all test wells. • 8. Incubate the plate at room temperature for 1 hour. • 9. Read the plate on a plate reader (Envision) • Excitation: 317 nm • Emission: 620 nm • Emission: 665 nm
EC50 values were calculated in Collaborative Drug Discovery vault (CDD). Curves were fitted by CDD as response (%) vs compound concentration (uM) using a 4-parameter inhibition model using Formula 1.
(§1) Fit=(A+((B−A)/(1+((C/x)^D))))

[1] = test system: SNU601-NucLight Red cells; test: Cellular viability assay, SNU601-NucLight Red; format: cell-based; details: SNU-601, 168 h, 7 days incubation, geometric mean
Description: (§2) The ability of the compounds disclosed herein to inhibit PARG was determined in the following two cell lines: RMUGS-NucLight Red and SNU601-NucLight Red. RMUGS-NucLight Red and SNU601-NucLight Red cells were generated by stably transducing parental cells (RMUGS-JCRB Cell Bank, Cat no: IF050320; SNU601-Korean Cell Line Bank, Cat no:00601) with Incucyte® NucLight Red lentivirus (Sartorius, Cat no: 4476). Described below are the protocols followed for both the cell lines.
(§3) The cells were plated at 200 cells/well in a 384-well black plate with clear flat bottom. After 24 hours, the plates were imaged using the Incucyte® S3 Live-Cell Analysis system and the number of live cells in each well (Day 0) was counted. Test compounds were then added by Tecan digital dispenser to generate a 9 point dose curve with a 3 fold dilution and 10 uM top concentration. All treatments were done in triplicates. After 7 days of incubation, the plates were imaged using the Incucyte® S3 system and the number of live cells per well (Day 7) was counted. For every well on the plate, the live cell counts on day 7 was normalized to the cell counts from day 0 (Day 7/Day 0). Average values of DMSO treated wells in a plate were calculated. All the data points were normalized to that of the average DMSO value. The % of control for each sample was compared to DMSO treated control samples. EC50 values were calculated in Collaborative Drug Discovery vault (CDD). Curves were fitted by CDD as % of control vs. log [compound concentration] using a 4-parameter inhibition model (Levenberg-Marquardt algorithm):
as §1
When clear bi-phasic behavior was observed on the resulting data the EC50 was calculated in GraphPad Prism Software for the major fraction of the response using the following formula:
Section1=Span*Frac/(1+10^((Log EC50_1−X)*nH1))
Section2=Span*(1−Frac)/(1+10^((Log EC50_2−X)*nH2))

RMUGS-NucLight Red cells = test: Cellular viability assay, RMUGS-NucLight Red; format: cell-based; details: 168 h, 7 days incubation, geometric mean
Description: as §2
as §3, with “1000” for “200”, “96-well” for “384-well”, “duplicates.” for “triplicates.”, “[…]” for “EC50”
as §1

[2] = Kinetic solubility in PBS pH 2.0 and pH 7.4; format: physicochemical; details: aqueous buffer, kinetic from dmso stock, * n <3 runs
Description: • Control compound diclofenac sodium (LOT #BCBW9128) was purchased from Sigma Chemical Co. • 1.5 mL glass flat bottom vials (BioTech Solutions) • Molded PTFE/SIL plugs (BioTech Solutions) • PTFE encapsulated stir stick (V&P Scientific) • MultiScreenHTS HV (0.45 μm) 96 well plate (Millipore, MSHVN4510 or MSHVN4550) • Eppendorf Thermomixer Comfort • Vacuum Manifold ORVMN96. • PBS pH 2.0 and pH 7.4 was prepared in our laboratory
• diclofenac sodium (LOT #BCBW9128), Sigma Chemical Co.
• 1. Preparation of stock solutions. The stock solutions of test compounds and control compound diclofenac sodium were prepared in DMSO at the concentration of 30 mM and 10 mM, respectively. • 2. Procedure for solubility determination. 10 μL of stock solutions (30 mM) of test compounds was placed in order into their proper 96-well rack, 20 μL of DMSO and 970 μL of PBS pH 2.0 or pH 7.4 was added into each vial of the cap-less Solubility Sample plate; 30 μL of stock solution (10 mM) of control compound was placed in order into its proper 96-well rack, 970 μL of PBS pH 2.0 or pH 7.4 was added into each vial of the cap-less Solubility Sample plate. The assay was performed in duplicate. One stir stick was added to each vial and seal using a molded PTFE/Silicone plug. Then the Solubility Sample plate was transferred to the Eppendorf Thermomixer Comfort plate shaker and shaken at 25° C. at 1100 RPM for 24 hours. After completion of the 24 hours, plugs were removed and the stir sticks were removed using a big magnet, the samples from the Solubility Sample plate were transferred into the filter plate. Using the Vacuum Manifold, all the samples were filtered. Aliquot of 10 μL was taken from the filtrate followed by addition of 990 μL of a mixture of H2O and acetonitrile (1:1 in v/v). 200 μL of diluent was transferred to a new 96-well plate for LC-MS/MS analysis. The dilution factor was changed according to the solubility values and the LC-MS signal response. • 3. Preparation of 3 μM standards (STD). From the 10 mM or 30 mM DMSO STD plate, 15 μL or 5 μL was transferred into the remaining empty plate, and then 485 μL or 495 μL of DMSO was added to that plate to have a STD concentration of 300 μM. From the 300 μM DMSO STD plate, 5 μL was transferred into the remaining empty plate, and then 495 μL of a mixture of H2O and acetonitrile (1:1 in v/v) was added to that plate to have a final STD concentration of 3 μM. 200 μL of diluent was transferred to a new 96-well plate for LC-MS/MS analysis. The concentrations of the standard samples were changed according to the LC-MS signal response. • 4. Procedure for sample analysis. The plate was placed into the well plate autosampler. The samples were evaluated by LC-MS/MS analysis.

[3] = PBS pH 2.0, 25° C., read-out: Kinetic Solubility pH 2.0
[4] = PBS pH 7.4, 25° C., read-out: Kinetic Solubility pH 7.4

Structure (SMILES) | EC50 (hPARG) | EC50 [1] | solubility kinetic at 24 h [2, 3] | solubility kinetic at 24 h [2, 4] | EC50 (RMUGS-NucLight Red cells)
C[C@@H]1CN(c2cc(S(=O)(=O)NC3(C)CC3)cc3c2cnn3-c2nnc(C(F)F)s2)C[C@@H](C)N1 | 51 nM | 89 nM | 261 µM (≈ 130 µg/mL) | 41 µM (≈ 20.4 µg/mL) | 32 nM
CC(C)C(=O)N1CCN(c2cc(S(=O)(=O)NC3(C#N)CC3)cc3c2cnn3-c2nnc(C(F)F)s2)C[C@H]1C | 39 nM | 146 nM | 2.1 µM (≈ 1.19 µg/mL) | 5.6 µM (≈ 3.16 µg/mL) | 75 nM
CN(C)C(=O)N1CCN(c2cc(S(=O)(=O)NC3(C)CC3)cc3c2cnn3-c2nnc(C(F)F)s2)CC1 | 7.3 nM | 36 nM | 0.2 µM (≈ 0.108 µg/mL) | 0.3 µM (≈ 0.162 µg/mL) | 8.3 nM
C[C@H]1CN(c2cc(S(=O)(=O)NC3(C#N)CC3)cc3c2cnn3-c2nnc(C(F)F)s2)CCN1C(=O)N(C)C | 14 nM | 110 nM | 7.8 µM (≈ 4.41 µg/mL) | 14 µM (≈ 7.92 µg/mL) | 77 nM
C[C@H]1CN(c2cc(S(=O)(=O)NC3(C)CC3)cc3c2cnn3-c2nnc(C(F)F)s2)C[C@H](C)N1 [drawing 29] | 1.9 nM | 11 nM | 282 µM (≈ 140 µg/mL) | 42 µM (≈ 20.9 µg/mL) | 4.2 nM

Continued, in another order:

EC50 (hPARG) | EC50 [1] | solubility kinetic at 24 h [2, 3] | solubility kinetic at 24 h [2, 4] | Structure (SMILES) | EC50 (RMUGS-NucLight Red cells)
15 nM | 27 nM | 271 µM (≈ 135 µg/mL) | 31 µM (≈ 15.4 µg/mL) | C[C@@H]1CN(c2cc(S(=O)(=O)NC3(C)CC3)cc3c2cnn3-c2nnc(C(F)F)s2)C[C@H](C)N1 | 11 nM
> 10000 nM | > 10000 nM | 29 µM (≈ 10.1 µg/mL) | 24 µM (≈ 8.36 µg/mL) | Cc1nnc(-n2ccc3ccc(S(=O)(=O)NC4(C)CC4)cc32)s1 | > 10000 nM
19 nM | 104 nM | 1.1 µM (≈ 0.606 µg/mL) | 2.1 µM (≈ 1.16 µg/mL) | CC(C)C(=O)N1CCN(c2cc(S(=O)(=O)NC3(C#N)CC3)cc3c2cnn3-c2nnc(C(F)F)s2)CC1 | 64 nM
76 nM | 184 nM | 3.4 µM (≈ 1.92 µg/mL) | 8 µM (≈ 4.52 µg/mL) | CC(C)C(=O)N1CCN(c2cc(S(=O)(=O)NC3(C#N)CC3)cc3c2cnn3-c2nnc(C(F)F)s2)C[C@@H]1C | 137 nM
79 nM | 178 nM | < 0.03 µM | < 0.03 µM | CC(C)C(=O)N1[C@H](C)CN(c2cc(S(=O)(=O)NC3(C#N)CC3)cc3c2cnn3-c2nnc(C(F)F)s2)C[C@@H]1C | 101 nM
201 nM | 1580 nM | 289 µM (≈ 143 µg/mL) | 2.7 µM (≈ 1.34 µg/mL) | CN1CCN(c2cc(S(=O)(=O)NC3(C#N)CC3)cc3c2cnn3-c2nnc(C(F)F)s2)CC1 | 439 nM
6.6 nM | 81 nM | 1 µM (≈ 0.552 µg/mL) | 1.4 µM (≈ 0.772 µg/mL) | CN(C)C(=O)N1CCN(c2cc(S(=O)(=O)NC3(C#N)CC3)cc3c2cnn3-c2nnc(C(F)F)s2)CC1 | 49 nM
9.9 nM | 84 nM | 7.2 µM (≈ 4.07 µg/mL) | 14 µM (≈ 7.92 µg/mL) | C[C@@H]1CN(c2cc(S(=O)(=O)NC3(C#N)CC3)cc3c2cnn3-c2nnc(C(F)F)s2)CCN1C(=O)N(C)C | 60 nM
